The EC50 is the concentration at which the effect is half-maximal.

The assay addresses T1, Muscarinic acetylcholine receptor M4 (Homo sapiens, UniProt P08173).
T1 sequence (P08173 whole entry): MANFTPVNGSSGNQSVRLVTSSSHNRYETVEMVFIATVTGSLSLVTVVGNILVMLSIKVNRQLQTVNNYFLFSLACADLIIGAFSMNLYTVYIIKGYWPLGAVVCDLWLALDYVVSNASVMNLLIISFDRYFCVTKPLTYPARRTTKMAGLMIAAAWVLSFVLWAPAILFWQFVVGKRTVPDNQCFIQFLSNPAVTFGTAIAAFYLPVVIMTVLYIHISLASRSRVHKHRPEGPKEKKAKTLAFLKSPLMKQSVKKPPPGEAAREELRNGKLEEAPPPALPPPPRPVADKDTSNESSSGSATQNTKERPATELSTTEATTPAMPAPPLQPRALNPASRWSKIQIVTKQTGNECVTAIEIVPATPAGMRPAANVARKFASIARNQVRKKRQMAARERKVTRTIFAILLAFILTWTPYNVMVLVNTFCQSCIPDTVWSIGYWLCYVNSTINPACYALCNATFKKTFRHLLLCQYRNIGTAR
Put plainly: Positive allosteric modulation of human muscarinic acetylcholine receptor M4 expressed in CHO-K1 cells coexpressing Galphaqi5 assessed as increase in acetylcholine-induced […] incubated for 16 to 20 hrs measured for 3.5 to 4 mins by FLIPR assay. It counts as functional, cell-based.

For the compound `COc1ccc(OC2CCN(c3nc(CO)nc(Cl)c3C)CC2)cn1`, the EC50 was 25 nM. As for `Cc1cc2c(nc1N1CC[C@@H](Oc3ccc4c(cnn4C)c3)[C@@H](F)C1)CNC2=O`, the figure is 17 nM; as for `COc1ccc(OC2CCN(c3nc4oc(=O)[nH]c(=O)c4c(Cl)c3C)CC2)cn1`, 15 nM.

The record behind these values is ChEMBL document CHEMBL4196156, “Allosteric Modulators of the M4 Muscarinic Acetylcholine Receptor” (ACS Med Chem Lett, 2018).
